Experimental data published in paper PMC9130233, “An inhibitor of RORγ for chronic pulmonary obstructive disease treatment” (Scientific Reports, 2022).
Several values for one entry are separate records, joined by “and”; a condition that tells them apart may be missing. Equal entries are not always repeated.

Legend:
human RORγt = target: T1, human RORγt (Homo sapiens, UniProt P51449); experiment: RORγ transactivation assay in transfected HEK293 cells; format: cell-based; conditions: HEK293, n = 4; read-out: potency, inhibition of human RORγt in transactivation assay
T1 construct: Gal4-DBD human RORγt hinge LBD/pcDNA 3.1; expressed in transfected cells; host or cells: HEK293
Method: For RORg transactivation assay the HEK293 cells were seeded in 100 mm dish and transfected with 4.5 µg total DNA (2.25 µg of pGL4.31 Luc2/GAL4-UAS hygro and 2.25 µg Gal4-DBD human RORγt hinge LBD/pcDNA 3.1 and 0.112 µg of pRL-CMV using Effectene transfection reagent (Qiagen). After 16–20 h post transfection, cells were reseeded at the density of 0.05 M cells per well of 96 well plate in DMEM high glucose containing 2% charcoal stripped serum. 4–6 h post seeding, PCCR-1 treatment was given for 24 h, followed by cells lysis with 1X Passive Lysis buffer of Dual luciferase kit (Promega). The signal was detected after addition of stop and glo reagent of the kit in luminescence mode.

human RORγ = system: T2, human RORγ; experiment: Dissociation assay, jump dilution method (TR-FRET), human; format: binding
T2 construct: RORC-LBD region 229-497aa; made in house; host or cells: Escherichia coli BL21-DE3
Method: (§1) To understand the inverse agonist behavior at the molecular level, interaction with the nuclear receptor RORγ was analyzed in binding assays by estimating its dissociation constant (Koff) and half-life (t1/2). The binding of a ligand stabilizes the conformation of the LBD while binding of a cofactor modifies receptor activity. Binding reversibility was evaluated by adding an excess of competing ligand in the FRET assay and evaluating the displacement of the tracer with inhibitor. Binding of the PCCR-1 with the LBD caused reduction in FRET on antibody addition forming a GST (Glutathione S-transferases) tagged RORγ-antibody complex. The dissociation assay was performed using the jump dilution method with PCCR-1 at a concentration showing maximum binding potency or IC90. The dissociation was tested on addition of an excess of a competitive ligand, the tracer.

mouse RORγ = system: T3, mouse RORγ; experiment: Dissociation assay, jump dilution method (TR-FRET), mouse; format: binding
T3 construct: RORγt-LBD region 264-516aa; made in house
Method: as §1

[1] = target: non RORγ isoforms and other major nuclear receptors; experiment: TR-FRET binding assays, other ROR isoforms and major nuclear receptors (summary)
Excerpt: (§2) Based on the homology of the ligand binding domains, 3 different isoforms of ROR (hRORα, hRORβ and hRORγ) are reported. Small variations in the LBD regions possibly lead to differences in competitive binding between the nuclear receptors of the ROR isoforms (Fig. 1b). Similar to the assessment of RORγ binding assay, TR-FRET binding assays were also used to assess the affinity of PCCR-1 for other ROR isoforms. […] This was reconfirmed in cellular functional assays for the selected isoforms and nuclear receptors using Gal4 DBD with luciferase reporter system from Indigo (PA, USA). […] In addition, both cellular agonist and antagonist effects as well as for enzyme activity were evaluated with a known reference compound for each target, using a radiolabeled method (Eurofins Cerep, France, Table 1).
For selectivity, the ROR isoforms RORα, FXR, LXRα, LXRβ, RXR, RARα were incubated with compound for 60 min at 22 °C followed by detection mix containing respective agonist (All trans retinoic acid for RARα, T0901317 for LXRα, LXRβ, 9-cis Retinoic acid for RXR, GW-4064 for FXR) and coactivator peptide (FD22 for RORα, PGC1α for RXR, RARα, TRAP220 for LXRα, LXRβ, SRC2-2 for FXR) and Tb-anti GST antibody prepared in assay buffer were added into a 384-well white plate. […]

RORα = RORα (Homo sapiens, UniProt P35398); experiment: Transactivation assay, Gal4 DBD luciferase reporter (Indigo); format: cell-based
Excerpt: as §2

[2] = system: Cerep Panel of receptors, ion channels and enzymes; experiment: Cerep panel of receptors (binding/functional assays); design: key: NSE No significant effect; V wk very weak (very low-level agonist activity seen with mPPARγ); conditions: at 10 µM, except targets listed in the next line
Excerpt: as §2

IL-22 in hPBMCs = experiment: IL-22 release, human PBMC, TCR activating conditions; format: cell-based; conditions: read-out: hIL-22 IC50
Method: An increase in the levels of Th17 dependent cytokine in the peripheral blood of COPD patients as compared to the Th1 and Th2 dependent cytokines has been well documented in a subset of COPD patients. A comparative study was performed under TCR activating conditions to evaluate the potencies of PCCR-1 for inhibition across Th1, Th2 and Th17 dependent cytokines using hPBMCs.
Human whole blood from healthy subjects were procured from Clinical Research Unit, Sanpada. Clinical Research Center Glenmark (Plot No. D, 508, Turbhe, TTC Industrial Area, MIDC, Sanpada, Navi Mumbai, Maharashtra 400705, India). PBMCs were isolated using heparinized blood with Ficoll Histopaque. Briefly, the cells were seeded in 96-well plate pre-coated with human anti-CD3 mAb (10 µg/mL), post 30 min of compound treatment cells were stimulated with human anti-CD28 mAb (2 µg/mL). After 72 h of culture, the supernatant was collected for Th1/Th2 cytokines; IFN-γ, IL-2, IL-4 and IL-10 and measured by ELISA. For Th17 polarization assay, the following cytokine cocktail was used: IL-1β (10 ng/ml), IL-23(10 ng/ml), IL-6 (50 ng/ml), TGF-β1 (3 ng/ml), IL-2 (20U/ml) and supernatants were used for measuring IL-17 and IL-22 by ELISA.

[3] = Single dose intranasal PK study in mice; format: in vivo, mouse
Method: A single dose intranasal PK study of PCCR-1 was conducted in male C57 mice at 20 and 50 µg/animal dose. The formulation was prepared in saline with 0.1% v/v tween-80 as the wetting agent. Animals were anesthetized briefly using gaseous isoflurane and oxygen mixture and a 40 µL of the formulation was instilled into both the nostrils (20 µL each) once the animal reached a regular breathing pattern and at pre-determined time points (0.25 h, 0.5 h, 1 h, 2 h, 4 h, 8 h and 24 h), approximately 0.3 mL of blood samples were collected using retro-orbital puncture in suitable anticoagulant (K3 EDTA). The animals were immediately sacrificed and lung was isolated. Blood samples were centrifuged (3000 rpm, 5 min) and plasma was harvested. Lung samples were homogenized in PBS buffer (pH 7.4) and centrifuged to collect the supernatant. Both plasma and lung samples were extracted using methyl t-butyl ether, mixed and centrifuged. The supernatant samples obtained after centrifugation were dried and reconstituted with acetonitrile-ammonium acetate buffer (90:10). The samples were mixed and analyzed in LCMS/MS for the analyte concentrations. Concentration vs time values were subjected to non-compartmental analysis using Phoenix WinNonlin® (Version 6.4) to estimate the appropriate pharmacokinetics parameters.

T1 sequence (P51449 97-518): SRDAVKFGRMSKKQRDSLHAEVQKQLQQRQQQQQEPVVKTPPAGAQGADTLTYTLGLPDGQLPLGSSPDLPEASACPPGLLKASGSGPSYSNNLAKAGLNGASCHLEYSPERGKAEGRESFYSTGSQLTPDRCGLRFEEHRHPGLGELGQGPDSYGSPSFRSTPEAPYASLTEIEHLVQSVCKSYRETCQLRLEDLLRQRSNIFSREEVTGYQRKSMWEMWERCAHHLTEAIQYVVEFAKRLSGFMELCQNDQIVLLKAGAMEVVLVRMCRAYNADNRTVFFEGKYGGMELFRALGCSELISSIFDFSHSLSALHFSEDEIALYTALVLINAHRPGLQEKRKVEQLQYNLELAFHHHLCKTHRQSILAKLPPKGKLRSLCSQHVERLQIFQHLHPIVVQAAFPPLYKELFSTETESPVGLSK
Chain of RORα (P35398 272-523 limits assumed): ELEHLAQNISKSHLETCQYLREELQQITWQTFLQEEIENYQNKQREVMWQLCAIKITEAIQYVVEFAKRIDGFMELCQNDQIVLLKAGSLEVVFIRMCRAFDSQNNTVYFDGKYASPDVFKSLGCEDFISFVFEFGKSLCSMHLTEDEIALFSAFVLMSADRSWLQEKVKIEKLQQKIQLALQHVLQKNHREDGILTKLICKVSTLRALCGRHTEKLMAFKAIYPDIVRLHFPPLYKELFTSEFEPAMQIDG

## CCn1c(C(C)(C)Oc2ccc(F)cc2F)nc2cc(NC(=O)Cc3ccc(S(=O)(=O)CC)cc3)ccc21 [PCCR-1]
Human RORγt
  IC50: 111 nM
Human RORγ; after 290 min (~ 5 h)
  dissociation: 50%
Human RORγ; human RORγ, jump dilution, PCCR-1 at IC90
  t1/2 (target residence time): 4.84 h
Human RORγ; human, till 3 h of measurement
  absolute dissociation: 50%
Mouse RORγ; mouse RORγ, jump dilution
  dissociation from the target protein: 20–25%
Mouse RORγ; mouse RORγ, jump dilution, PCCR-1 at IC90
  t1/2 (target residence time): 4.69 h
Mouse RORγ; mouse, till 3 h of measurement
  absolute dissociation: 50%
[1]; TR-FRET, read-out: IC50 for the rest of the non RORγ isoforms and other major nuclear receptors
  IC50: > 10000 nM
[1]; relative to RORγ
  fold selectivity over other ROR isoforms / nuclear receptors: > 313.7 fold and > 300 fold
RORα
  effect in transactivation assays for RORα inhibition: no effect
[2]
  Cerep Panel of receptors (binding/functional assays): NSE at 10 µM except#
IL-22 in hPBMCs
  IC50: 297 nM
[3]
  quantifiable levels in lungs, time post dose: up to 24 h
[3]; both doses (20 and 50 µg)
  mean lung to plasma AUClast ratio: > 1000
  time of peak lung concentrations post dose: 2 to 4 h
[3]; male, C57, mouse, lung/plasma, inhaled or intranasal, 50 ug, both doses (20 and 50 µg), read-out: mean lung to plasma Cmax ratio
  Kp: > 1000
